Among the data in patent US8426417B2, “Substituted pyrrolo-pyrimidine derivatives, process for their preparation and their use as kinase inhibitors” (priority 2007, dated 2013) are IC50 values, retold here.

This test has as its target T1, PLK1 enzyme KD (Kinase Domain) 2-345 (Homo sapiens, UniProt P53350).
T1 construct: PLK1 kinase domain (corresponding to residues 2-345) was PCR amplified; His tag (N, cleaved yes); TEV cleavage site (N, cleaved yes); made in house; host or cells: High5 insect cells (baculovirus generated in Sf9)
The test can be described thus: Biochemical assay for inhibitors of PLK-1 kinase activity (trans-phosphorylation, Dowex resin, 33P-ATP). The note with it: PLK1 KD 2-345 3 nM, 40 microM ATP, 85 microM alpha-casein, 60 minutes at room temperature. The procedure: The inhibitory activity of putative kinase inhibitors and the potency of selected compounds were determined using a trans-phosphorylation assay.
Three cycles of mixing are done immediately after the addition of the resin.

T1 sequence (P53350 2-345): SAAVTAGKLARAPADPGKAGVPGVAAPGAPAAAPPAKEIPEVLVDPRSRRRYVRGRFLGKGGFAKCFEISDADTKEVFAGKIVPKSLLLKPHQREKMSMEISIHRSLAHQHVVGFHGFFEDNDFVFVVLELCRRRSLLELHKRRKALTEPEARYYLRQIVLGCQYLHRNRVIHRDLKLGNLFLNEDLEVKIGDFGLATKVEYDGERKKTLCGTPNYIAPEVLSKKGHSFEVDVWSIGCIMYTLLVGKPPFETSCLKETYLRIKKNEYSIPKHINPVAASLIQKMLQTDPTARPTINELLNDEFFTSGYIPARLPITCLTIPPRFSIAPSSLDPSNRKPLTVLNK

A word on the IC50: it is the point on the concentration scale where inhibition reaches its midpoint. With `O=C1NCCc2[nH]c(-c3ccnc(Nc4ccccc4)n3)cc21` [Reference Compound], the midpoint of inhibition, the IC50, lay at 110 nM.
